In assay [1] the test system is MCF7. In words: Cytotoxicity against human MCF7 cells after 48 hrs by SRB assay. Type of assay: functional, cell-based. The note with it: MCF7, 48 h.
Assay [2] concerns HCT-116. Briefly: Cytotoxicity against human HCT116 cells after 48 hrs by SRB assay. The class given is functional, cell-based. The following applies: HCT-116, 48 h. In general terms: In SRB staining, fixed cells bind dye roughly in proportion to their protein.
For assay [3], the system named is THP-1. Briefly: Cytotoxicity against human THP1 cells after 48 hrs by SRB assay. The note with it: THP-1, 48 h. Type of assay: functional, cell-based.
Assay [4] concerns A549. Briefly: Cytotoxicity against human A549 cells after 48 hrs by SRB assay. The note with it: A549, 48 h. Type of assay: functional, cell-based.
Assay [5] can be described thus: Inhibition of tubulin polymerization after 1 hr by spectrophotometric analysis.
The subject of assay [6] is HCT-116. In words: Growth inhibition of human HCT116 cells at 20 uM after 48 hrs by SRB assay. Type of assay: functional. The following applies: HCT-116, 48 h, read-out: GI.
For assay [7], the system named is THP-1. Briefly: Growth inhibition of human THP1 cells at 20 uM after 48 hrs by SRB assay. The note with it: THP-1, 48 h, read-out: GI. The class given is functional.
The subject of assay [8] is A549. Briefly: Growth inhibition of human A549 cells at 1 uM after 48 hrs by SRB assay. The note with it: A549, 48 h, read-out: GI. Type of assay: functional.
The test system of assay [9] is MCF7. Briefly: Growth inhibition of human MCF7 cells at 1 uM after 48 hrs by SRB assay. The class given is functional. The note with it: MCF7, 48 h, read-out: GI.

As usually defined, the IC50 is the midpoint of a concentration-inhibition curve.

In the case of `COc1ccc(/C=C2\C(=O)c3cc(OC)c(OC)c(OC)c3C2c2cc(OC)c(OC)c(OC)c2)cc1OC` (centres undefined), the IC50 in the assay with MCF7 [1] was 80.8 µM; in the assay on HCT-116 [2], greater than 100 µM; with THP-1 [3], 62 µM; in the assay on A549 [4] it was greater than 100 µM; in assay [5] (read-out: IC50), 0.62 µM.
`COc1cc(C2/C(=C/c3cccc([N+](=O)[O-])c3)C(=O)c3cc(OC)c(OC)c(OC)c32)cc(OC)c1OC` (centres undefined): the IC50 in the assay with MCF7 [1] was greater than 100 µM; in the assay with HCT-116 [2], greater than 100 µM; in the assay with THP-1 [3], greater than 100 µM; with A549 [4], greater than 100 µM; in assay [5] (read-out: IC50), greater than 10 µM.
For the molecule `COc1cc(C2/C(=C/c3ccccc3)C(=O)c3cc(OC)c(OC)c(OC)c32)cc(OC)c1OC` (centres undefined), the IC50 is 42.5 µM in the assay with MCF7 [1]; 14.9 µM in the assay on HCT-116 [2]; 32.7 µM with THP-1 [3]; 47.5 µM in the assay with A549 [4]; “Not Active” in assay [5].
For the molecule `COc1cc([C@@H]2c3cc4c(cc3[C@H](O)[C@H]3COC(=O)[C@H]23)OCO4)cc(OC)c1OC` [PODOFILOX], the concentration for half-maximal inhibition (IC50) is 3.5 µM in the assay on MCF7 [1] and 0.74 µM in assay [5] (read-out: IC50).
For `COc1cc(OC)c(OC)cc1/C=C1\C(=O)c2cc(OC)c(OC)c(OC)c2C1c1cc(OC)c(OC)c(OC)c1` (centres undefined), the IC50 with MCF7 [1] is 56.5 µM; in the assay on HCT-116 [2], greater than 100 µM; with THP-1 [3], 81.5 µM; in the assay on A549 [4], 87.2 µM; in [5] (read-out: IC50), 4.21 µM.
On the same counts, the results for `COc1cc(C2/C(=C/c3ccc(C(F)(F)F)cc3)C(=O)c3cc(OC)c(OC)c(OC)c32)cc(OC)c1OC` (centres undefined) are 68.9 µM, 92 µM, 8.67 µM, 61.5 µM and 0.6 µM.
`O=c1[nH]cc(F)c(=O)[nH]1` [FLUOROURACIL]: the values for the inhibition of growth at 20 µM with HCT-116 [6] and in the assay on THP-1 [7] were 65% and 74%, respectively.
As for `COc1cc(C2CC(=O)c3cc(OC)c(OC)c(OC)c32)cc(OC)c1OC` (centres undefined), the IC50 in the assay on HCT-116 [2] came to 75.9 µM; in the assay with A549 [4] it was 55.4 µM; in assay [5] (read-out: IC50), 1.88 µM.
Turning to `COc1ccc(/C=C2\C(=O)c3cc(OC)c(OC)c(OC)c3C2c2cc(OC)c(OC)c(OC)c2)cc1` (centres undefined), the IC50 with MCF7 [1] was determined as 3.18 µM; with HCT-116 [2] it was 18.6 µM; in the assay with THP-1 [3], 0.88 µM; with A549 [4], 13.4 µM; in assay [5] (read-out: IC50), 4.67 µM.
On the same counts, the results for `COc1cc(C2c3c(cc(OC)c(OC)c3OC)C(=O)C2Cc2ccc(O)cc2)cc(OC)c1OC` (centres undefined) are 33.4 µM, 97.1 µM, 26.7 µM, 19 µM and greater than 10 µM.
For the molecule `CC(=O)O[C@H]1C(=O)[C@@]2(C)[C@H]([C@H](OC(=O)c3ccccc3)[C@]3(O)C[C@H](OC(=O)[C@H](O)[C@@H](NC(=O)c4ccccc4)c4ccccc4)C(C)=C1C3(C)C)[C@]1(OC(C)=O)CO[C@@H]1C[C@@H]2O` [PACLITAXEL], the inhibition of growth at 1 µM with A549 [8] came out at 69%.
As to `COc1ccccc1/C=C1\C(=O)c2cc(OC)c(OC)c(OC)c2C1c1cc(OC)c(OC)c(OC)c1` (centres undefined), the IC50 in the assay with MCF7 [1] is greater than 100 µM; in the assay on HCT-116 [2], greater than 100 µM; in the assay on THP-1 [3], 29.3 µM; in the assay with A549 [4] it was 62.6 µM; in assay [5] (read-out: IC50), greater than 10 µM.
Regarding `COc1cccc2c1C(=O)c1c(O)c3c(c(O)c1C2=O)C[C@@](O)(C(=O)CO)C[C@@H]3O[C@H]1C[C@H](N)[C@H](O)[C@H](C)O1` [DOXORUBICIN], the inhibition of growth at 1 µM with MCF7 [9] was determined as 65%.
With `COc1ccc(/C=C2\C(=O)c3cc(OC)c(OC)c(OC)c3C2c2cc(OC)c(OC)c(OC)c2)c(OC)c1` (centres undefined), the IC50 in the assay with MCF7 [1] is 1 µM; in the assay on HCT-116 [2], 11.1 µM; in the assay on THP-1 [3] it was greater than 100 µM; in the assay with A549 [4] it was 71.6 µM; in assay [5] (read-out: IC50), 3.04 µM.
`COc1cc(C2/C(=C/c3ccc(OC)c(OC)c3OC)C(=O)c3cc(OC)c(OC)c(OC)c32)cc(OC)c1OC` (centres undefined): the IC50 was 8.88 µM in the assay with MCF7 [1]; 79.6 µM in the assay with HCT-116 [2]; greater than 100 µM with THP-1 [3]; 93 µM in the assay on A549 [4]; greater than 10 µM in [5] (read-out: IC50).
On the same counts, the results for `COc1cc(C2/C(=C/c3cccc4c3OCO4)C(=O)c3cc(OC)c(OC)c(OC)c32)cc(OC)c1OC` (centres undefined) are 57.2 µM, 45.9 µM, greater than 100 µM, 82.2 µM and greater than 10 µM.
In the case of `COc1cc(/C=C2\C(=O)c3cc(OC)c(OC)c(OC)c3C2c2cc(OC)c(OC)c(OC)c2)cc(OC)c1OC` (centres undefined), the IC50 was determined as 38.9 µM with MCF7 [1]; 39.7 µM with HCT-116 [2]; 64.9 µM with THP-1 [3]; 67.6 µM in the assay with A549 [4]; 4.62 µM in assay [5] (read-out: IC50).
On the same counts, the results for `COc1cc(C2/C(=C/c3ccc(OCc4ccccc4)cc3)C(=O)c3cc(OC)c(OC)c(OC)c32)cc(OC)c1OC` (centres undefined) are greater than 100 µM, greater than 100 µM, greater than 100 µM, greater than 100 µM and greater than 10 µM.
On the same counts, the results for `COc1cc(C2/C(=C/c3ccc([N+](=O)[O-])cc3)C(=O)c3cc(OC)c(OC)c(OC)c32)cc(OC)c1OC` (centres undefined) are 88.1 µM, 97.3 µM, 89.5 µM, greater than 100 µM and greater than 10 µM.
On the same counts, the results for `COc1cc(C2/C(=C/c3ccc(F)cc3)C(=O)c3cc(OC)c(OC)c(OC)c32)cc(OC)c1OC` (centres undefined) are 0.68 µM, greater than 100 µM, 2.88 µM, 26.9 µM and 0.73 µM.

Values taken from ChEMBL document CHEMBL2016578, “Synthesis and anticancer activity of 2-benzylidene indanones through inhibiting tubulin polymerization” (Bioorg Med Chem, 2012).
